Data set [1] concerns the target T1, PPARδ (Homo sapiens, UniProt Q03181).
T1 sequence (Q03181 1-441): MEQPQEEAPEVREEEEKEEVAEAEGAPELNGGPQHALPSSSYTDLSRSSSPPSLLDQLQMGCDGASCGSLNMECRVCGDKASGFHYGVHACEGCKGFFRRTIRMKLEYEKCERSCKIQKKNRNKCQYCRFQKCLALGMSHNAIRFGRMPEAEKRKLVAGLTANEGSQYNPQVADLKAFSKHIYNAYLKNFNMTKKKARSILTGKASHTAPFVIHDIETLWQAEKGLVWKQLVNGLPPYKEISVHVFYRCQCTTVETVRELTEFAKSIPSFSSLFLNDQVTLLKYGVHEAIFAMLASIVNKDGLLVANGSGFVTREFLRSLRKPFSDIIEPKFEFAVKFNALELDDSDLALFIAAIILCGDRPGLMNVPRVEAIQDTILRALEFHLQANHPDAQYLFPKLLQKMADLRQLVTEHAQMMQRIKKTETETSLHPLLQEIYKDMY
The following applies: cited from earlier work.

For data set [2], the system named is mouse model of human alcoholic hepatitis. Kind of data set: AH mouse model (chronic and binge ethanol feeding plus LPS), dose-response study. Format: in vivo. Conditions: for effect on body weight: 10, 30 and 50 mg/kg/day oral gavage, male and female mice. The text has this: Mouse model generation and treatment. The AH mouse model was generated as described in Shah et al. through chronic and binge ethanol feeding plus lipopolysaccharides (LPS) administration to provide a second hit to increase liver damage (Shah R et al., Oxid Med Cell Longev, (2018), 2018:9630175; Lamas-Paz A et al., World J Gastroenterol, (2018), 24:5063-75). This model is easy to implement and recapitulates the major features of human AH including marked ALT elevation, liver steatosis, and fibrosis (O'Beirne J., Dig Dis Sci., (2020), 65:920-1). A total of 60 mice, were used at a 50:50 male/female ratio to provide a comprehensive representation applicable in treating the general population. C57BL6 mice (6-8-week-old) were fed Lieber-DeCarli '82 rodent liquid diet (LDC) ad libitum for 5 days to acclimatize them to tube feeding. On day 6, mice were treated according to Table 1. Ethanol-fed groups were allowed free access to LDC diet containing 5% (vol/vol) ethanol for 11 days, and control groups were pair-fed with the LDC diet only. Indeglitazar was administered by oral gavage starting from day 6. On day 12, mice were given a single dose of 5 g/kg/bw of EtOH by oral gavage, and LPS (2 mg/kg/bw) by intraperitoneal injection (IP), pair-fed mice were fed isocaloric maltose dextrin and all mice were euthanized 6 h later.
Analysis and tests: Mice were treated for 11 days; body weights were measured before and during administration. Plasma was analyzed for ALT, AST, and GGT. A full necropsy was performed at the end-point together with liver histology to assess steatosis, and inflammatory infiltrates. Briefly, liver tissue was fixed in 10% neutral buffered formalin and paraffin-embedded, sectioned into […] thickness, and stained with hematoxylin-eosin (H&E) and Oil-Red O staining for evaluation of histopathological changes. Stained liver slices were analyzed under a bright-field microscope using the histological scoring system for nonalcoholic fatty liver disease (Kleiner D L et al., Hepatology, (2005), 41:1313-21). The remaining liver tissue was analyzed for liver triglycerides and cholesterol levels by biochemical assays.
The AH mouse model was generated as described in Shah et al. through chronic and binge ethanol (EtOH) feeding plus lipopolysaccharide (LPS) administration, to provide a second insult, to increase liver damage (Bertola A et al., Nat Protoc, (2013), 8:627-637; Takahashi Y et al., (2017), 313-339; Shah R et al., Oxid Med Cell Longev, (2018), 2018:9630175). This model recapitulates the major features of human AH, including marked ALT and AST elevation, liver steatosis, and fibrosis (Lucey M R et al., N Engl J Med., (2009), 360:2758-2769). For a dose-response study, a total of 60 (12 per group, 50:50 male/female ratio) C57BL6 mice (6-8-weeks old) were fed Lieber-DeCarli '82 rodent liquid diet (LDC) ad libitum, for 5 days, to acclimatize them to tube feeding. On days 6-11, mice were fed the LCD diet plus ethanol (5% vol:vol), and treated with indeglitazar (10 mg/kg, 30 mg/kg, or 50 mg/kg, oral gavage). On day 12, mice were given a single dose of EtOH (5 g/kg/body weight) by oral gavage and LPS (2 mg/kg/body weight) by ip injection; pair-fed mice were fed isocaloric maltose dextrin and all mice were euthanized 6 h later.

Entries after “also recorded” stand apart in the source; their conditions may differ.

Consider one molecule from US12485106B2, “Methods of treating fibrotic liver diseases or conditions with indeglitazar” (PLEIOGENIX INC., priority 2023, dated 2025).

Regarding `COc1ccc(S(=O)(=O)n2cc(CCC(=O)O)c3cc(OC)ccc32)cc1` [Indeglitazar, 3-[5-methoxy-1-(4-methoxybenzenesulfonyl)-1H-indol-3-yl]-propanoic acid], the “agonism towards PPARδ” value in data set [1] is “partial agonism”. For the same molecule, the “effect on liver triglycerides” value in data set [2] (50 mg/kg, vs vehicle+EtOH) was “significantly reduced”. Besides, the “reduction of ALT activity” value in data set [2] (50 mg/kg, vs vehicle+EtOH, P<0.0001) turned out to be 60%. Besides, in data set [2] (50 mg/kg, vs vehicle+EtOH, P<0.004), the “reduction of AST” value was determined as 49%. In addition, the “reduction of liver TG” value in data set [2] (50 mg/kg, vs vehicle+EtOH, P<0.03) is recorded as 35%. Moreover, the “effect on liver total cholesterol” value in data set [2] (10, 30, 50 mg/kg/day) is given as “no significant effect”. The “effect on food intake” value in data set [2] (10, 30 and 50 mg/kg oral gavage, vs EtOH-treated vehicle control) is on record as “Neither EtOH (vs no EtOH vehicle control) or indeglitazar had a significant effect”. For the same molecule, the “effect on body weight” value in data set [2] (vs ethanol-treated vehicle control) was “no significant effect”; in data set [2] (vs ethanol-treated vehicle control, listed as indeglitazar) it was “Neither EtOH (vs no EtOH vehicle control) or indeglitazar had a significant effect; also recorded: no significant effect”. Further, the “effect on AST” value in data set [2] (10 and 50 mg/kg, vs ethanol-treated vehicle control) is given as “significant decreases”. The “effect on ALT” value in data set [2] (all three doses (10, 30, 50 mg/kg), vs ethanol-treated vehicle control) is recorded as “significant decrease”.
